The record followed here is US7279494B2, “Antimicrobial [3.1.0] bicyclohexylphenyl-oxazolidinone derivatives and analogues” (Pfizer Inc., priority 2003, dated 2007).

One series deals with S. aureus UC9213. The series is described as follows: MIC by standard agar dilution, S. aureus UC9213. The format is cell-based. As to conditions: Staphylococcus aureus, UC9213, Mueller Hinton agar, incubated overnight at 35° C. The method, boiled down: (§1)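 Agar dilution MIC: 2-fold serial compound dilutions in Mueller Hinton agar, spot-inoculated with ~10^4–10^5 cells from 0.5 McFarland suspensions diluted 1:20 in TSB. Incubated overnight at 35 °C; MIC (μg/mL) taken as lowest concentration preventing visible growth.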

The next series relates to S. pneumoniae UC9912. The series is described as follows: MIC by standard agar dilution, S. pneumoniae UC9912. The format is cell-based. As to conditions: Streptococcus pneumoniae, UC9912, Mueller Hinton agar, incubated overnight at 35° C. In outline:
as §1

The next series has as its system H. influenzae 30063. As to the kind of experiment: MIC by standard agar dilution, H. influenzae 30063. The format is cell-based. As to conditions: Haemophilus influenzae, 30063, agar dilution, Mueller Hinton agar, incubated overnight at 35° C.; read-out: H. influenzae 30063 MIC. The method, boiled down:
as §1
On the technique in general: Agar dilution tests growth on a series of plates holding different concentrations.

In brackets after ≈: the same amount, converted by molar mass.

With `CC(=O)NC[C@H]1CN(c2ccc([C@H]3[C@@H]4CSC[C@@H]43)c(F)c2)C(=O)O1` [Example 1, N-[((5S)-3-{3-fluoro-4-[exo-(1R,5S)-3-thiabicyclo[3.1.0]hex-6-yl]phenyl}-2-oxo-1,3-oxazolidin-5-yl)methyl]acetamide], the melting point (commonly the temperature of the solid-liquid transition) lay in the range of 177 to 178 °C. Further, the MIC against S. aureus UC9213 was found to be 4 µg/mL (≈ 11.4 µM). The same compound showed an MIC with S. pneumoniae UC9912 of 1 µg/mL (≈ 2.85 µM). Also, the MIC in the series with H. influenzae 30063 was no more than 32 µg/mL.
In the case of `CC(=O)NC[C@H]1CN(c2ccc([C@H]3[C@@H]4CN(C(=O)[C@@H](O)CO)C[C@@H]43)c(F)c2)C(=O)O1` [Example 9, N-[((5S)-3-{3-fluoro-4-[exo-(1R,5S)-3-((2S)-2,3-dihydroxypropanoyl)-3-azabicyclo[3.1.0]hex-6-yl]phenyl}-2-oxo-1,3-oxazolidin-5-yl)methyl]acetamide], the MIC in the series with S. aureus UC9213 is 8 µg/mL (≈ 19 µM); against S. pneumoniae UC9912, 1 µg/mL (≈ 2.37 µM); in the series with H. influenzae 30063, 8 µg/mL (≈ 19 µM).
For `CC(=O)NC[C@H]1CN(c2ccc([C@H]3[C@@H]4C[S+]([O-])C[C@@H]43)c(F)c2)C(=O)O1` (stereo partly drawn) [Example 2, N-[((5S)-3-{3-fluoro-4-[exo-(1R,5S)-3-oxido-3-thiabicyclo[3.1.0]hex-6-yl]phenyl}-2-oxo-1,3-oxazolidin-5-yl)methyl]acetamide], the MIC amounted to 2 µg/mL (≈ 5.46 µM) against S. aureus UC9213, 0.25 µg/mL (≈ 0.682 µM) against S. pneumoniae UC9912 and 2 µg/mL (≈ 5.46 µM) in the series on H. influenzae 30063.
As for `CC(=O)NC[C@H]1CN(c2ccc([C@H]3[C@@H]4CS(=O)(=O)C[C@@H]43)c(F)c2)C(=O)O1` [Example 3, N-[((5S)-3-{4-[exo-(1R,5S)-3,3-dioxido-3-thiabicyclo[3.1.0]hex-6-yl]-3-fluorophenyl}-2-oxo-1,3-oxazolidin-5-yl)methyl]acetamide], the results for the MIC in the series on S. aureus UC9213, in the series with S. pneumoniae UC9912 and with H. influenzae 30063 were 2 µg/mL (≈ 5.23 µM), 0.25 µg/mL (≈ 0.654 µM) and 4 µg/mL (≈ 10.5 µM), respectively.
In the same order, the values of `CC(=O)NCC(=O)N1C[C@@H]2[C@H](C1)[C@H]2c1ccc(N2C[C@H](CNC(C)=O)OC2=O)cc1F` [Example 36, N-[((5S)-3-{3-fluoro-4-[exo-(1R,5S)-3-acetylaminoacetyl-3-azabicyclo[3.1.0]hex-6-yl]phenyl}-2-oxo-1,3-oxazolidin-5-yl)methyl]acetamide] are 8 µg/mL (≈ 18.5 µM), 4 µg/mL (≈ 9.25 µM) and 32 µg/mL (≈ 74 µM).
On to `CC(=O)NC[C@H]1CN(c2cc(F)c([C@H]3[C@@H]4CN(C(=O)CO)C[C@@H]43)c(F)c2)C(=O)O1` [Example 15, N-[((5S)-3-{3,5-difluoro-4-[exo-(1R,5S)-3-glycoloyl-3-azabicyclo[3.1.0]hex-6-yl]phenyl}-2-oxo-1,3-oxazolidin-5-yl)methyl]acetamide], for which the figures for the MIC with S. aureus UC9213, with S. pneumoniae UC9912 and with H. influenzae 30063 were 2 µg/mL (≈ 4.89 µM), 0.5 µg/mL (≈ 1.22 µM) and 16 µg/mL (≈ 39.1 µM), respectively.
In the same order, the values of `CC(=O)NC[C@H]1CN(c2ccc([C@H]3[C@@H]4CN(c5nn[nH]n5)C[C@@H]43)c(F)c2)C(=O)O1` [Example 44, N-[((5S)-3-{3-fluoro-4-[exo-(1R,5S)-3-(2H-tetrazol-5-yl)-3-azabicyclo[3.1.0]hex-6-yl]phenyl}-2-oxo-1,3-oxazolidin-5-yl)methyl]acetamide] are 16 µg/mL (≈ 39.9 µM), 32 µg/mL (≈ 79.7 µM) and 64 µg/mL (≈ 159 µM).
As for `CCC(=O)NC[C@H]1CN(c2cc(F)c([C@H]3[C@@H]4CN(C(N)=O)C[C@@H]43)c(F)c2)C(=O)O1` [Example 63, exo-(1R,5S)-6-(4-{(5S)-5-[(propanoylamino)methyl]-2-oxo-1,3-oxazolidin-3-yl}-2,6-difluorophenyl)-3-azabicyclo[3.1.0]hexane-3-carboxamide], the figures for the MIC with S. aureus UC9213, against S. pneumoniae UC9912 and with H. influenzae 30063 were 2 µg/mL (≈ 4.9 µM), 1 µg/mL (≈ 2.45 µM) and 8 µg/mL (≈ 19.6 µM), respectively.
As to `CC(=O)NC[C@H]1CN(c2ccc([C@H]3[C@@H]4COC[C@@H]43)cc2)C(=O)O1` [Example 16, N-[((5S)-3-{4-[exo-(1R,5S)-3-oxabicyclo[3.1.0]hex-6-yl]phenyl}-2-oxo-1,3-oxazolidin-5-yl)methyl]acetamide], the MIC against S. aureus UC9213 was 4 µg/mL (≈ 12.6 µM); in the series with S. pneumoniae UC9912, 2 µg/mL (≈ 6.32 µM); with H. influenzae 30063 it was 16 µg/mL (≈ 50.6 µM).
In the same order, the values of `O=C(NC[C@H]1CN(c2ccc([C@H]3[C@@H]4CS(=O)(=O)C[C@@H]43)c(F)c2)C(=O)O1)C1CC1` [Example 53, N-[((5S)-3-{3-fluoro-4-[exo-(1R,5S)-3,3-dioxido-3-thiabicyclo[3.1.0]hex-6-yl]phenyl}-2-oxo-1,3-oxazolidin-5-yl)methyl]cyclopropanecarboxamide] are 4 µg/mL (≈ 9.79 µM), 2 µg/mL (≈ 4.9 µM) and 4 µg/mL (≈ 9.79 µM).
Consider `N#CCC(=O)NC[C@H]1CN(c2cc(F)c([C@H]3[C@@H]4C[S+]([O-])C[C@@H]43)c(F)c2)C(=O)O1` (stereo partly drawn) [Example 70, 2-cyano-N-[((5S)-3-{3,5-difluoro-4-[exo-(1R,5S)-3-oxido-3-thiabicyclo[3.1.0]hex-6-yl]phenyl}-2-oxo-1,3-oxazolidin-5-yl)methyl]acetamide], for which the MIC in the series on S. aureus UC9213 was 2 µg/mL (≈ 4.89 µM); in the series with S. pneumoniae UC9912 it was 1 µg/mL (≈ 2.44 µM); with H. influenzae 30063 it was 4 µg/mL (≈ 9.77 µM).
In the same order, the values of `CC(=O)NC[C@H]1CN(c2ccc([C@H]3[C@@H]4CN(C(=N)N)C[C@@H]43)c(F)c2)C(=O)O1` [Example 72, N-{[(5S)-3-(4-{exo-(1R,5S)-3-[amino(imino)methyl]-3-azabicyclo[3.1.0]hex-6-yl}-3-fluorophenyl)-2-oxo-1,3-oxazolidin-5-yl]methyl}acetamide] are 32 µg/mL (≈ 85.2 µM), 8 µg/mL (≈ 21.3 µM) and 64 µg/mL (≈ 170 µM).
In the same order, the values of `CC(=O)NC[C@H]1CN(c2ccc([C@H]3[C@@H]4CN(C(=O)C5(O)CC5)C[C@@H]43)c(F)c2)C(=O)O1` [Example 31, N-[((5 S)-3-{3-fluoro-4-[exo-(1R,5S)-3-(1-hydroxy-cyclopropanecarbonyl)-3-azabicyclo[3.1.0]hex-6-yl]phenyl}-2-oxo-1,3-oxazolidin-5-yl)methyl]acetamide] are 2 µg/mL (≈ 4.79 µM), 2 µg/mL (≈ 4.79 µM) and 16 µg/mL (≈ 38.3 µM).
For the compound `CC(F)(F)C(=O)NC[C@H]1CN(c2ccc([C@H]3[C@@H]4C[S+]([O-])C[C@@H]43)c(F)c2)C(=O)O1` (stereo partly drawn) [Example 54, 2,2-difluoro-N-[((5S)-3-{3-fluoro-4-[exo-(1R,5S)-3-oxido-3-thiabicyclo[3.1.0]-6-yl]phenyl}-2-oxo-1,3-oxazolidin-5-yl)methyl]propanamide], the MIC against S. aureus UC9213 was 8 µg/mL (≈ 19.2 µM); in the series with S. pneumoniae UC9912, 4 µg/mL (≈ 9.61 µM); in the series with H. influenzae 30063 it was 4 µg/mL (≈ 9.61 µM).
`CC(=O)NC[C@H]1CN(c2ccc([C@H]3[C@@H]4CN(C(=O)[C@H]5CCCO5)C[C@@H]43)c(F)c2)C(=O)O1` [Example 41, N-[((5S)-3-{3-fluoro-4-[exo-(1R,5S)-3-(tetrahydrofuran-2-(R)-carbonyl)-3-azabicyclo[3.1.0]hex-6-yl]phenyl}-2-oxo-1,3-oxazolidin-5-yl)methyl]acetamide]: the MIC in the series on S. aureus UC9213 was 4 µg/mL (≈ 9.27 µM); against S. pneumoniae UC9912, 2 µg/mL (≈ 4.64 µM); with H. influenzae 30063, 32 µg/mL (≈ 74.2 µM).
Take `O=C(CO)N1C[C@@H]2[C@H](C1)[C@H]2c1ccc(N2C[C@H](CNC(=S)C(F)F)OC2=O)cc1F` [Example 6, 2,2-difluoro-N-[((5S)-3-{3-fluoro-4-[exo-(1R,5S)-3-gycoloyl-3-azabicyclo[3.1.0]hex-6-yl]phenyl}-2-oxo-1,3-oxazolidin-5-yl)methyl]ethanethioamide]: the MIC with S. aureus UC9213 came to 0.5 µg/mL (≈ 1.13 µM); against S. pneumoniae UC9912, 0.25 µg/mL (≈ 0.564 µM); in the series with H. influenzae 30063 it was 4 µg/mL (≈ 9.02 µM).
In the case of `CC(=O)NC[C@H]1CN(c2ccc([C@H]3[C@@H]4CN(C=O)C[C@@H]43)c(F)c2)C(=O)O1` [Example 8, N-[((5S)-3-{3-fluoro-4-[exo-(1R,5S)-3-formyl-3-azabicyclo[3.1.0]hex-6-yl]phenyl}-2-oxo-1,3-oxazolidin-5-yl)methyl]acetamide], the MIC against S. aureus UC9213 turned out to be 4 µg/mL (≈ 11.1 µM); in the series on S. pneumoniae UC9912 it was 1 µg/mL (≈ 2.77 µM); in the series with H. influenzae 30063, 8 µg/mL (≈ 22.1 µM).
